Results published in ChEMBL document CHEMBL3045406, “Enantioselective Relieving Activity of α-Methylbenzylphenylureas toward Bensulfuron-methyl Injury to Rice (Oryza sativa)” (Biosci Biotechnol Biochem, 1999).

Assays:
Oryza sativa [1] = assay: Safener indices, ratio of compound effect of Oryza sativa (rice) growth rate to relieving activity against bensulfuron-methyl induced injury to Oryza sativa growth rate at 0.1 uM
Oryza sativa [2] = assay: Safener indices, ratio of compound effect of Oryza sativa (rice) growth rate to relieving activity against bensulfuron-methyl induced injury to Oryza sativa growth rate at 1 uM
Oryza sativa [3] = assay: Relieving activity against bensulfuron-methyl induced injury to Oryza sativa (rice) assessed as growth rate at 0.1 uM (Rbv = 46 to 53%); type: functional
Oryza sativa [4] = assay: Effect on Oryza sativa (rice) assessed as growth rate at 1 uM relative to control; type: organism-based; conditions: in vivo
Oryza sativa [5] = assay: Effect on Oryza sativa (rice) assessed as growth rate at 0.1 uM relative to control; type: organism-based; conditions: in vivo
Oryza sativa [6] = assay: Effect on Oryza sativa (rice) assessed as growth rate at 10 uM relative to control; type: organism-based; conditions: in vivo
Oryza sativa [7] = assay: Safener indices, ratio of compound effect of Oryza sativa (rice) growth rate to relieving activity against bensulfuron-methyl induced injury to Oryza sativa growth rate at 10 uM
Oryza sativa [8] = assay: Relieving activity against bensulfuron-methyl induced injury to Oryza sativa (rice) assessed as growth rate at 10 uM (Rbv = 46 to 53%); type: functional
Oryza sativa [9] = assay: Relieving activity against bensulfuron-methyl induced injury to Oryza sativa (rice) assessed as growth rate at 1 uM (Rbv = 46 to 53%); type: functional
[10] = Hydrophobicity, log K of the compound; type: physicochemical; conditions: octanol/water

SMILES | Ratio (Oryza sativa [1]) | Ratio (Oryza sativa [2]) | Activity (Oryza sativa [3]) [%] | Activity (Oryza sativa [4]) [%] | Activity (Oryza sativa [5]) [%] | Activity (Oryza sativa [6]) [%] | Ratio (Oryza sativa [7]) | Activity (Oryza sativa [8]) [%] | Activity (Oryza sativa [9]) [%] | log K [10]
C[C@H](NC(=O)Nc1ccc(Cl)cc1)c1ccccc1 | 21 | 64 | 63 | 101 | 103 | 101 | 74 | 88 | 83 | 0.439
C[C@H](NC(=O)Nc1ccc(F)cc1F)c1ccccc1 | 28 | 56 | 65 | 100 | 101 | 99 | 85 | 93 | 79 | 0.394
C[C@H](NC(=O)Nc1ccccc1Cl)c1ccccc1 | 50 | 80 | 75 | 104 | 99 | 106 | 95 | 98 | 91 | 0.486
C[C@@H](NC(=O)Nc1cccc(Cl)c1)c1ccccc1 | -2 | 19 | 50 | 91 | 97 | 83 | 32 | 61 | 57 | 0.47
C[C@H](NC(=O)Nc1cccc(Cl)c1)c1ccccc1 | 31 | 57 | 68 | 99 | 103 | 103 | 82 | 92 | 79 | 0.47
C[C@@H](NC(=O)Nc1ccc(Cl)cc1)c1ccccc1 | 1 | 61 | 50 | 95 | 96 | 87 | 71 | 84 | 80 | 0.439
C[C@@H](NC(=O)Nc1ccccc1Br)c1ccccc1 | 6 | 20 | 53 | 100 | 99 | 94 | 61 | 79 | 60 | 0.504
C[C@H](NC(=O)Nc1ccccc1Br)c1ccccc1 | 32 | 74 | 67 | 99 | 101 | 102 | 97 | 98 | 87 | 0.504
C[C@@H](NC(=O)Nc1cccc(Br)c1)c1ccccc1 | 31 | 59 | 66 | 100 | 100 | 99 | 85 | 92 | 80 | 0.512
C[C@H](NC(=O)Nc1cccc(Br)c1)c1ccccc1 | 31 | 59 | 66 | 100 | 100 | 99 | 85 | 92 | 80 | 0.512
C[C@@H](NC(=O)Nc1ccc(Br)cc1)c1ccccc1 | 5 | 55 | 53 | 95 | 100 | 87 | 76 | 86 | 77 | 0.488
C[C@H](NC(=O)Nc1ccc(Br)cc1)c1ccccc1 | 24 | 59 | 62 | 97 | 98 | 96 | 69 | 84 | 79 | 0.488
C[C@@H](NC(=O)Nc1ccccc1I)c1ccccc1 | 19 | 34 | 61 | 100 | 100 | 96 | 69 | 84 | 68 | 0.502
C[C@H](NC(=O)Nc1ccccc1I)c1ccccc1 | 32 | 70 | 67 | 100 | 99 | 98 | 77 | 89 | 85 | 0.502
C[C@@H](NC(=O)Nc1cccc(I)c1)c1ccccc1 | 26 | 44 | 57 | 75 | 81 | 73 | 53 | 71 | 66 | 0.568
C[C@H](NC(=O)Nc1cccc(I)c1)c1ccccc1 | 43 | 66 | 72 | 95 | 98 | 93 | 80 | 90 | 83 | 0.568
C[C@@H](NC(=O)Nc1ccc(I)cc1)c1ccccc1 | 35 | 58 | 69 | 91 | 100 | 85 | 63 | 79 | 78 | 0.556
C[C@H](NC(=O)Nc1ccc(I)cc1)c1ccccc1 | 39 | 70 | 70 | 97 | 99 | 95 | 85 | 92 | 85 | 0.556
C[C@@H](NC(=O)Nc1cc(C(F)(F)F)cc(C(F)(F)F)c1)c1ccccc1 | 10 | 34 | 56 | 93 | 100 | 53 | 30 | 49 | 65 | 0.831
C[C@H](NC(=O)Nc1cc(C(F)(F)F)cc(C(F)(F)F)c1)c1ccccc1 | 13 | 33 | 57 | 95 | 101 | 86 | 44 | 69 | 65 | 0.831
CCc1cccc(CC)c1NC(=O)N[C@H](C)c1ccccc1 | 6 | 25 | 54 | 101 | 101 | 99 | 53 | 77 | 63 | 0.523
CCc1cccc(CC)c1NC(=O)N[C@@H](C)c1ccccc1 | 1 | 6 | 52 | 93 | 101 | 83 | 6 | 46 | 50 | 0.523
C[C@@H](NC(=O)Nc1cc(C(C)(C)C)ccc1C(C)(C)C)c1ccccc1 | 11 | 23 | 57 | 99 | 100 | 99 | 43 | 73 | 63 | 1.001
C[C@H](NC(=O)Nc1cc(C(C)(C)C)ccc1C(C)(C)C)c1ccccc1 | 8 | 15 | 56 | 98 | 98 | 97 | 46 | 74 | 59 | 1.001
C[C@@H](NC(=O)Nc1cccc(F)c1F)c1ccccc1 | 5 | 31 | 53 | 99 | 100 | 90 | 73 | 85 | 66 | 0.435
C[C@H](NC(=O)Nc1cccc(F)c1F)c1ccccc1 | 36 | 75 | 68 | 100 | 100 | 100 | 87 | 93 | 88 | 0.435
C[C@@H](NC(=O)Nc1ccc(F)cc1F)c1ccccc1 | 4 | 21 | 53 | 100 | 100 | 93 | 66 | 82 | 61 | 0.394
C[C@@H](NC(=O)Nc1ccccc1Cl)c1ccccc1 | 3 | 21 | 53 | 103 | 101 | 93 | 67 | 83 | 63 | 0.486
